The values below come from US5219825A, “Synergistic herbicidal compositions comprising herbicides which generate toxic oxygen radicals and chelating agents which inhibit their detoxification” (Yeda Research and Development Co., Ltd., priority 1986, dated 1993).

Experiment [1] relates to Conyza bonariensis paraquat sensitive biotype. The experiment in a line: Phytotoxicity measured as 14CO2 fixation 24 h after spraying. The format is in vivo. The note with it: for % photosynthesis inhibition: sensitive biotype. How it is done: (§1) Seeds of two biotypes of Conyza bonariensis (L.) Cronq. (synonym C. linifolia) were obtained from Egypt. The paraquat sensitive biotype was gathered near Alexendria and seeds of the resistant type from the Tahrir irrigation district. They were obtained from Dr. Martin Parham in England. Seeds were germinated in a growth room with a 14 h light period at 25° C. Plants were transferred out of doors 24 h before being sprayed. The phytotoxicity of three herbicides representative of the three different modes of generating active oxygen species known at present. Commercial paraquat (Gramoxone-ICI Plant Protection Ltd) was formulated with 0.1% (w/v) Tween-20 (a non-ionic surfactant) for spraying. The response to the range of 10^-5 M to 10^-2 M paraquat was measured by spraying two plants per concentration to run-off in the early morning. All plants were exposed to sunlight for at least 13 h (1300 μE.m^-2s^-1 photosynthetically active radiation (PAR) at mid day). Commercial acifluorfen (Blazer, Rohm, and Hass, Philadelphia, Pa., USA) to which was added 0.25% Tween-20 was sprayed to run-off. The response to spraying was measured as with paraquat 24 h after spraying. Commercial atrazine (Atranex 50 WP-Agan) was sprayed at various rates in 0.25% Tween 20 to run off. Fully expanded, 8 to 10 cm long leaves from plants in the rosette stage were used in all experiments. Phytotoxicity of acifluorfen and paraquat was measured as CO2 fixation 24 h later as follows: Detached leaves were placed on wet filter paper in a sealed chamber with 5μ Ci^14 C-sodium bicarbonate. Tartaric acid was remotely dripped on the sodium bicarbonate to release ^14 CO2. Leaves were illuminated with […] (PAR) for 30 min. Eighty percent acetone was added and the mixture put under strong light to photobleach pigments and evaporate the acetone. A scintillation mixture of Lumax:xylene (45:55) was added to the leaves and remaining water. The samples were counted and the data expressed as DPM.cm^-2. Area was measured with a planimeter from photocopies of the leaves made prior to photosynthesis measurements. Phytotoxicity of atrazine was measured as the elevated level of malonyldialdehyde in the tissue. Malonyldialdehyde (as measured with thiobarbituric acid according to Dodge and Gillham (Asp. Appl. Biol 11 97 (1986)) is a measurement of lipoxidation of unsaturated fatty acids, and provides an excellent estimation of damage by active oxygen species.

Experiment [2] deals with Conyza bonariensis paraquat tolerant biotype. Described as above. The class given is in vivo. The note with it: for % photosynthesis inhibition: tolerant biotype. As for the experimental part:
as §1

In the next experiment the test system is Beans. The experiment in a line: Whole plant spray, visual rating. The following applies: paraquat 100 μM spray to run-off, DDC 0.75% W/V where added, scored 1 day after treatment. The class given is in vivo. The text has this:
(§2) Seeds of Conyza bonariensis were germinated and plants cultivated as outlined in Example 1. Other species were germinated in a similar mixture and treated at 10 days.
(§3) ^a visual ratings (scored 1 day after treatment): 0 no damage to
(§4) slight burn; 1 moderate burn (may regenerate); 2 severe burn (will die)

The next experiment concerns Sinapsis arvense. The experiment in a line: Whole plant spray, visual rating. The format is in vivo. The note with it: paraquat 30 μM spray to run-off, DDC 0.75% W/V where added, scored 1 day after treatment.
Text: as §2, §3, §4

The next experiment has as its system Stellaria media. As to the kind of experiment: Whole plant spray, visual rating. The class given is in vivo. The following applies: paraquat 30 μM spray to run-off, DDC 0.75% W/V where added, scored 1 day after treatment.
Text: as §2, §3, §4

The subject of experiment [3] is Biotypes of certain weed species. The note with it: cited from earlier work.
The subject of experiment [4] is superoxide dismutase extracted from chloroplasts of Conyza bonariensis biotype requiring high levels of oxidant herbicide. The experiment in a line: Inhibition of superoxide dismutase activity on gel. The note with it: gel soaked with 0.2% diethyldithiocarbamate. The format is biochemical. As for the experimental part: (§5) Based on preliminary evidence that there was no difference in superoxides dismutase activity in whole leaves of these two biotypes and our own findings we assayed the levels of the dismutating enzymes in chloroplast extracts. The oxidant producing herbicides are effective in field conditions only in the light. […] This justifies assay of these enzymes in chloroplasts. Intact chloroplasts were isolated according to the method of Slovacek and Hind (Plant Physio. 60, 538 (1977)) except that 50 mM 2-(N-morpholino)ethanesulfonic acid buffer was used instead of the pyrophosphate buffer originally used in the chloroplast isolation medium. […] Chlorophyll content was measured in 80% acetone according to Arnon (Plant Physiol. 24 1 […]). Intactness of chloroplast was measured by means of ribulose-bis-phosphate-carboxylase activity in the chloroplast fraction supernatant according to Bjorkman (Physiol. Plant 21 1, (1968)), and proteins by the method of Bradford (Analyt. Biochem. 72 248 (1976)). […] We developed a technique to quantify superoxide dismutase by generating a standard curve by running different levels of known superoxide dismutase (ex bovine blood, Sigma) on the same gel. […] The gels were scanned in a Beckman DU-8 spectrophotometer, the peak areas were measured and related to the superoxide dismutase standard curve which was linear up to 0.2 enzyme units. […]

For experiment [5], the system named is superoxide dismutase extracted from chloroplasts of Conyza bonariensis biotype requiring low levels of oxidant herbicide. The experiment in a line: Inhibition of superoxide dismutase activity on gel. The format is biochemical. The note with it: gel soaked with 0.2% diethyldithiocarbamate. As for the experimental part: as §5
The mark [6] stands for this setting: herbicide molar conc. 3 × 10^-4.
[7] abbreviates: herbicide molar conc. 3.2 × 10^-5.

Take `C[n+]1ccc(-c2cc[n+](C)cc2)cc1` [paraquat, 1,1'-dimethyl-4-4'bipyridium ion]: the IC100 in experiment [1] (Conyza bonariensis, 24 h, wild biotype, read-out: concentration at which CO2 assimilation ceased) came to 10 µM; in experiment [2] (Conyza bonariensis, 24 h, resistant biotype, read-out: concentration at which CO2 assimilation ceased), 1000 µM. In addition, the “% photosynthesis inhibition” value in experiment [1] (setting [6]) was determined as 100%; in experiment [1] (setting [7]), 100%; in experiment [1] (herbicide molar conc. 10^-3) it was 100%; in experiment [1] (herbicide molar conc. 10^-4), 100%; in experiment [1] (herbicide molar conc. 10^-5, spray to run-off) it was 95%; in experiment [2] (herbicide molar conc. 3 × 10^-3), 100%. Further, the “% photosynthesis inhibition” value was 48% in experiment [2] (setting [6]); 0% in experiment [2] (setting [7]); 97% in experiment [2] (herbicide molar conc. 10^-3); 0% in experiment [2] (herbicide molar conc. 10^-4); 0% in experiment [2] (herbicide molar conc. 10^-5). For the same molecule, the visual rating in the experiment on Beans is recorded as 1.5; in the experiment on Sinapsis arvense it was 0.5; with Stellaria media, 0.5. Moreover, in experiment [3] (biotypes that have evolved resistance to paraquat), the “rate that does not kill resistant biotypes” value was above 16 kg/ha. For the same molecule, in experiment [3] (sensitive biotype of the same species), the “rate that controls the sensitive biotype” value is reported as 1 kg/ha.

With `CCN(CC)C(=S)[S-].[Na+]` [DDC, Sodium diethyldithiocarbamate], the “% inhibition of activity” value in experiment [4] and in experiment [5] was 100% throughout.
